Tests used:
[1] = Particle size characterisation by laser diffraction (Mastersizer 2000); assay type: physicochemical; conditions: budesonide particles; for Particle size distribution D(0.1′): diameter for the smallest particles up to 10% of the material analyzed; for Particle size distribution d(0.5)′ (mean particle size): diameter for the smallest particles up to 50% of the material analyzed; for Particle size distribution d(0.9)′: diameter for the smallest particles up to 90% of the material analyzed
From the text: The terms “particle size”, “particle size diameter” and “particle size distribution” in this specification refer to values obtained as given in the Experimental Part (laser diffraction by the use of Mastersizer 2000 from Malvern Instruments Ltd, Worcestershire, United Kindom). For the meaning of “mean particle size” or “mean particle diameter” see also the Experimental Part.
A 2% w/v budesonide solution in acetone was introduced into the nozzle of FIG. 2 placed in the arrangement of FIG. 1 (except for the recycling capability) using a separate high-performance liquid chromatography pump 1.4 ml/min, together with the 125 g/min scCO2 (about 150 ml/min) which was modified with the make-up agent 4.2 ml/min acetone. The pressure in the system was 100 atm. and temperature was at 60° C. All of the streams contact within the nozzle and the budesonide powder formed and collected in the particle collecting chamber. The scCO2 and acetone was drained via the backpressure regulator outlet. Then, a further washing process was performed to eliminate the solvent mixed in the scCO2. After the washing process, the CO2 was slowly drained off from the chamber. Once the CO2 had been completely removed, the particles on the filter and on the wall were collected for analysis. The particles were characterized by laser diffraction in Mastersizer 2000 (Malvern Instruments Ltd, Worcestershire, United Kingdom).

[2] = Particle morphology and size by scanning electron microscope (TM-1000 Hitachi); assay type: physicochemical; conditions: Example 6: solvent acetone, fluid water 10 ml/min, solution 0.2 ml/min, coaxial tube nozzle (FIG. 6)
Procedure: It had two high pressure pumps (Jasco PU 980). One of the pump (624b) is used to feed the solution (0.2 ml/min Piroxicam in acetone (2% w/v)) (602) via a transport conduit (621) and the other pump (624a) is used to feed 10 ml/min water (fluid, anti-solvent) (603) via transport conduit (616) to a spray nozzle (601) placed in a particle collection chamber (605) containing at its outlet (625) a function for separating particles (filter) (615). The nozzle internal transport conduits were two stainless steel tubes (610,612) that were placed coaxially to each other with the inner one (612) connected to the pump (624b) for the solution and the outer one (610) to the pump (624a) for fluid. […] Particle sizes were determined to be less than 3 μm. […]
A high pressure pump (Thar P50) (724a) is used to feed 50 ml/min water (fluid, anti-solvent) (703) via a transport conduit (716) and a high pressure pump (Jasco PU 980) (724b) is used to feed 1 ml/min solution of Piroxicam in acetone (2% w/v) (702) via transport conduit (721) to a nozzle (701) placed in a particle collecting chamber (705) containing at its outlet (725) a particle separation function in the form of a filter cup (715). […] The morphology and size of the crystals in the filter cup is determined using TM1000 Hitachi scanning electron microscope. Particle sizes were determined to be between 0.5 μm to 2 μm. […]

Particle sizes [2] | SMILES | Spec. Surface Area [1] [m^2/g] | Particle size distribution D(0.1′) [1] | Particle size distribution d(0.5)′ (mean particle size) [1] | Particle size distribution d(0.9)′ [1]
 | CCCC1O[C@@H]2C[C@H]3[C@@H]4CCC5=CC(=O)C=C[C@]5(C)[C@H]4[C@@H](O)C[C@]3(C)[C@]2(C(=O)CO)O1 (stereo partly drawn) [Example 1, budesonide] | 1.7 | ≦1.9 μm | ≦4.0 μm | ≦7.9 μm
 | CCCC1O[C@@H]2C[C@H]3[C@@H]4CCC5=CC(=O)C=C[C@]5(C)[C@H]4[C@@H](O)C[C@]3(C)[C@]2(C(=O)CO)O1 (stereo partly drawn) [Example 2, budesonide] | 1.7 | ≦1.1 μm | ≦1.9 μm | ≦3.4 μm
 | CCCC1O[C@@H]2C[C@H]3[C@@H]4CCC5=CC(=O)C=C[C@]5(C)[C@H]4[C@@H](O)C[C@]3(C)[C@]2(C(=O)CO)O1 (stereo partly drawn) [Example 3, budesonide] | 1.6 | ≦2.2 μm | ≦4.2 μm | ≦8.7 μm
 | CCCC1O[C@@H]2C[C@H]3[C@@H]4CCC5=CC(=O)C=C[C@]5(C)[C@H]4[C@@H](O)C[C@]3(C)[C@]2(C(=O)CO)O1 (stereo partly drawn) [Example 4, budesonide] | 0.6 | ≦6.3 μm | ≦14.2 μm | ≦26.7 μm
 | CCCC1O[C@@H]2C[C@H]3[C@@H]4CCC5=CC(=O)C=C[C@]5(C)[C@H]4[C@@H](O)C[C@]3(C)[C@]2(C(=O)CO)O1 (stereo partly drawn) [Example 5, budesonide] | 1.7 | ≦2.0 μm | ≦4.1 μm | ≦7.9 μm
less than 3 μm | CN1C(C(=O)Nc2ccccn2)=C(O)c2ccccc2S1(=O)=O [Piroxicam] |  |  |  | 
